Among the data in patent US20240294522A1 (Lead Discovery Center GmbH, priority 2021, published 2024) are IC50 values, retold here.

Each structure is given as a SMILES string.

One test concerns the target T1, GRK5 (Homo sapiens, UniProt P34947).
T1 construct: purchased Thermo Scientific
The test can be described thus: Lance Kinase Activity Assay, GRK5. To be noted: biochemical Lance kinase activity assay; class symbols A-F; read-out: GRK5 LANCE Assay (IC-50). The method, then: (§1) This protocol describes how the Lance Kinase Activity Assay was performed to determine IC50 values of compounds of general formula (I) against GRK5 and GRK2.
(§2) The principle behind this enzymatic assay is based upon the phosphorylation of the Ulight-peptide substrate. It is detected by using a specific EU-labeled anti-phospho peptide antibody. The binding of the Eu labeled anti-phospho peptide antibody to the phosphorylated ULight labeled peptide gives rise to a FRET-signal. Binding of an inhibitor to the kinase prevents phosphorylation of the Ulight-substrate, resulting in a loss of FRET. In tables 2 and 3 the relevant information for these two LANCE assays is summarized.
(§3) For every sample, 2 μl of assay buffer (50 mM HEPES pH 7,5, 10 mM MgCL2, 1 mM EGTA 0,01% Tween 20, 1% DMSO, 2 mM DTT) were transferred into a suitable assay plate (e.g. Corning #3673). Compounds were added in a concentration range from 10 μM to 0.0025 μM using an acoustic dispenser (Echo520 from Labcycte, San Jose, USA) equipped with Echo Dose Response software. After that 6 μl of kinase-substrate mix was added. Reaction was started by addition of 2 μl ATP working solution and mixed using a Bioshake 5000 microplate shaker (Q Instruments, Jena, Germany).
(§4) After 1 h incubation at room temperature the reaction was stopped with 10 μl detection mix containing the Eu-labeled phosphospecific antibody and 10 mM EDTA. After a second incubation period of 1 h at room temperature the FRET signal was measured at 340 nm excitation, 665 nm and 615 nm emission (for the ULight-substrate and Eu-AB, respectively) with an Envision microplate reader (Perkin Elmer, Waltham, MA, USA) with 50 μs delay and 300 μs integration time. IC50 values were determined from the sigmoidal dose response curves with the software Quattro Workflow (Quattro GmbH, Munich, Germany).
(§5) Inhibition is indicated as IC50 [nM] (“−”=not measured). Compounds having an activity designated as “A” provided an IC50≤50 nM; compounds having an activity designated as “B” provided an 50 nM<IC50≤100 nM; compounds having an activity designated as “C” provided an 100 nM<IC50≤500 nM; compounds having an activity designated as “D” provided an 500 nM<IC50≤1000 nM; compounds having an activity designated as “E” provided an 1000 nM<IC50≤10000 nM; and compounds having an activity designated as “F” provided an IC50>10000 nM.

A further test has as its target T2, GRK2 (Homo sapiens, UniProt P25098).
T2 construct: purchased Thermo Scientific
T2 sequence (P25098 1-689): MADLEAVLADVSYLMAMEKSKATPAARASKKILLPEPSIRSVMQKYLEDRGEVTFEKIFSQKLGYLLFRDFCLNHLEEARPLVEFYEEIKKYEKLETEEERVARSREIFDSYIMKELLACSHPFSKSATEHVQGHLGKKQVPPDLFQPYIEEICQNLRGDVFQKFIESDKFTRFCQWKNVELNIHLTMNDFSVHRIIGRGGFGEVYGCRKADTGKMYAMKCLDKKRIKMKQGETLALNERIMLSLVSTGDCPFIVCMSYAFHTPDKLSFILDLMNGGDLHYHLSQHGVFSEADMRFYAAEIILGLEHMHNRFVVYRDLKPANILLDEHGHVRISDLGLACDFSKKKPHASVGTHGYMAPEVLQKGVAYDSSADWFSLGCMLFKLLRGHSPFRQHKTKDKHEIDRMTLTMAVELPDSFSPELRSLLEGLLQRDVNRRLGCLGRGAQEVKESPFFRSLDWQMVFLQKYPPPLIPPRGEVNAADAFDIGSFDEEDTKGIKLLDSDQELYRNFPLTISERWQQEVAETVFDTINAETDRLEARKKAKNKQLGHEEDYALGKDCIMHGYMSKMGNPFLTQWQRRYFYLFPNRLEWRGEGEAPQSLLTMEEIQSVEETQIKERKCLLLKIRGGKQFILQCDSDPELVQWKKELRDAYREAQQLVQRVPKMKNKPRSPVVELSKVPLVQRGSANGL
The test can be described thus: Lance Kinase Activity Assay, GRK2. Conditions: biochemical Lance kinase activity assay; class symbols A-F; read-out: GRK2 LANCE Assay (IC-50). The protocol:
as §1, §2, §3, §4, §5

T1 sequence (P34947 whole entry): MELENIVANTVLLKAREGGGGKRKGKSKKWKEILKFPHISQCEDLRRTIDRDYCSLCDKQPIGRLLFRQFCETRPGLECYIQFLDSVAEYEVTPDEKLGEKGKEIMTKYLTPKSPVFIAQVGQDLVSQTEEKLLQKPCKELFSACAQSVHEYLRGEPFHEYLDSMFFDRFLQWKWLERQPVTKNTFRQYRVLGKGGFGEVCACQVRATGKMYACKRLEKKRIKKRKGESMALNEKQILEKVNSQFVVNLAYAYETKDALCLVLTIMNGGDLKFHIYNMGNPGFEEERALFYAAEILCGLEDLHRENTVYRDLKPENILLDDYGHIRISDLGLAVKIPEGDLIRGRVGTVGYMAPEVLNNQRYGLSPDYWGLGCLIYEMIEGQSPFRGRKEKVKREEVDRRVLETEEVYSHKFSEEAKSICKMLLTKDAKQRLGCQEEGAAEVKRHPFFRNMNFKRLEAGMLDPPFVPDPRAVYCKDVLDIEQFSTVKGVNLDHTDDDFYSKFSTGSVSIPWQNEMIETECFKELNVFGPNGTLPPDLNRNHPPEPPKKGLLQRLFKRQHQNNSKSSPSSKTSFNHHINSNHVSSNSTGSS

With `COc1ccc([C@@H](C)NC(=O)/C=C/c2c[nH]c3ncc(OCCN(C)C)cc23)cc1OC` [Example 56, (R,E)-N-(1-(3,4-dimethoxyphenyl)ethyl)-3-(5-(2-(dimethylamino)ethoxy)-1H-pyrrolo[2,3-b]pyridin-3-yl)acrylamide], the IC50 on GRK5 was 50 to 100 nM; at GRK2 it was above 10000 nM.
In the case of `C[C@@H](NC(=O)/C(C#N)=C/c1c[nH]c2ncc(-c3ccccc3)cc12)c1ccc(F)cc1` [Example 179], the IC50 is 100 to 500 nM on GRK5 and 1000 to 10000 nM at GRK2.
As for `COc1ccc([C@@H](C)NC(=O)/C(C#N)=C/c2c[nH]c3ncc(N4CCN(C)CC4)cc23)cc1OC` [Example 85], the IC50 was at most 50 nM on GRK5 and above 10000 nM on GRK2.
The like results for `COc1ccc([C@@H](C)NC(=O)/C=C/c2c[nH]c3ncc(-c4cccc(CN(C)C)c4)cc23)cc1OC` [Example 190] were, in that order, at most 50 nM and 1000 to 10000 nM.
For `COc1ccc([C@@H](C)NC(=O)/C(C#N)=C/c2c[nH]c3ncc(Nc4ccccc4)cc23)cc1OC` [Example 88, (R,E)-2-cyano-N-(1-(3,4-dimethoxyphenyl)ethyl)-3-(5-(phenylamino)-1H-pyrrolo[2,3-b]pyridin-3-yl)acrylamide], the IC50 at GRK5 is at most 50 nM; on GRK2, 1000 to 10000 nM.
Consider `COc1ccc([C@@H](C)NC(=O)/C=C/c2c[nH]c3ncc(-c4ccccc4S(C)(=O)=O)cc23)cc1OC` [Example 222, (R,E)-N-(1-(3,4-dimethoxyphenyl)ethyl)-3-(5-(2-(methylsulfonyl)phenyl)-1H-pyrrolo[2,3-b]pyridin-3-yl)acrylamide], for which the IC50 at GRK5 is 1000 to 10000 nM; on GRK2, above 10000 nM.
For `COc1ccc([C@@H](C)NC(=O)/C=C/c2c[nH]c3nccc(-c4ccc(N5CCN(C(C)=O)CC5)cc4)c23)cc1OC` [Example 235, (R,E)-3-(4-(4-(4-acetylpiperazin-1-yl)phenyl)-1H-pyrrolo[2,3-b]pyridin-3-yl)-N-(1-(3,4-dimethoxyphenyl)ethyl)acrylamide], in that order: 50 to 100 nM and above 10000 nM.
As for `COc1ccc([C@@H](C)NC(=O)/C=C/c2c[nH]c3ncc(-c4cccc(S(=O)(=O)C(F)(F)F)c4)cc23)cc1OC` [Example 264, (R,E)-N-(1-(3,4-dimethoxyphenyl)ethyl)-3-(5-(3-((trifluoromethyl)sulfonyl)phenyl)-1H-pyrrolo[2,3-b]pyridin-3-yl)acrylamide], the IC50 was at most 50 nM on GRK5 and above 10000 nM on GRK2.
For `CN(C)c1ccc(CNC(=O)/C(C#N)=C/c2c[nH]c3ncccc23)cc1` [Example 24, (E)-2-cyano-N-(4-(dimethylamino)benzyl)-3-(1H-pyrrolo[2,3-b]pyridin-3-yl)acrylamide], in that order: 1000 to 10000 nM and above 10000 nM.
On to `COc1cccc([C@@H](C)NC(=O)/C(C#N)=C/c2c[nH]c3ncccc23)c1` [Example 33, (R,E)-2-cyano-N-(1-(3-methoxyphenyl)ethyl)-3-(1H-pyrrolo[2,3-b]pyridin-3-yl)acrylamide], for which the IC50 at GRK5 and on GRK2 was at most 50 nM in each case.
For the compound `N#C/C(=C\c1c[nH]c2ncc(Cl)cc12)C(=O)NCc1ccc(F)cc1` [Example 72, (E)-3-(5-chloro-1H-pyrrolo[2,3-b]pyridin-3-yl)-2-cyano-N-(4-fluorobenzyl)acrylamide], the IC50 at GRK5 and at GRK2 was 1000 to 10000 nM throughout.
Consider `Cc1ccc(Br)cc1CNC(=O)/C(C#N)=C/c1c[nH]c2ncccc12` [Example 23, (E)-N-(5-bromo-2-methylbenzyl)-2-cyano-3-(1H-pyrrolo[2,3-b]pyridin-3-yl)acrylamide], for which the values for the IC50 on GRK5 and at GRK2 were 1000 to 10000 nM and above 10000 nM, respectively.
For `COc1ccc([C@@H](C)NC(=O)/C(C#N)=C/c2c[nH]c3ncc(-c4ccc(OCCN(C)C)cc4)cc23)cc1OC` [Example 154], in that order: at most 50 nM and 500 to 1000 nM.
For `COc1ccc([C@@H](C)NC(=O)/C=C/c2c[nH]c3nccc(-c4ccc(C5CCN(C)CC5)cc4)c23)cc1OC` [Example 240, (R,E)-N-(1-(3,4-dimethoxyphenyl)ethyl)-3-(4-(4-(1-methylpiperidin-4-yl)phenyl)-1H-pyrrolo[2,3-b]pyridin-3-yl)acrylamide], in that order: 50 to 100 nM and 1000 to 10000 nM.
With `COc1ccc([C@@H](C)NC(=O)/C(C#N)=C/c2c[nH]c3ncc(-c4ccc5nc(C)cn5c4)cc23)cc1OC` [Example 162], the IC50 on GRK5 was at most 50 nM; at GRK2 it was 1000 to 10000 nM.
The like results for `CC(=O)Nc1cccc(CNC(=O)/C(C#N)=C/c2c[nH]c3ncccc23)c1` [Example 34, (E)-N-(3-acetamidobenzyl)-2-cyano-3-(1H-pyrrolo[2,3-b]pyridin-3-yl)acrylamide] were, in that order, 100 to 500 nM and at most 50 nM.
For `COc1ccc([C@@H](C)NC(=O)/C=C/c2c[nH]c3ncc(-c4cccc(C#N)c4)cc23)cc1OC` [Example 221, (R,E)-3-(5-(3-cyanophenyl)-1H-pyrrolo[2,3-b]pyridin-3-yl)-N-(1-(3,4-dimethoxyphenyl)ethyl)acrylamide], in that order: at most 50 nM and above 10000 nM.
In the case of `COc1ccc([C@@H](C)NC(=O)/C=C/c2c[nH]c3ncc(-c4cccc(C(N)=O)c4)cc23)cc1OC` [Example 189], the IC50 was at most 50 nM on GRK5 and 1000 to 10000 nM on GRK2.
With `COc1ccc([C@@H](C)NC(=O)/C=C/c2c[nH]c3nccc(-c4cccc(CN(C)C)c4)c23)cc1OC` [Example 224, (R,E)-N-(1-(3,4-dimethoxyphenyl)ethyl)-3-(4-(3-((dimethylamino)methyl)phenyl)-1H-pyrrolo[2,3-b]pyridin-3-yl)acrylamide], the IC50 on GRK5 was 100 to 500 nM; on GRK2, above 10000 nM.
In the case of `COc1ccc([C@@H](C)NC(=O)/C(C#N)=C/c2c[nH]c3ncc(-c4cnn(C)c4)cc23)cc1OC` [Example 164], the figures for the IC50 at GRK5 and at GRK2 were at most 50 nM and 1000 to 10000 nM, respectively.
The like results for `COc1ccc([C@@H](C)NC(=O)/C(C#N)=C/c2c[nH]c3ncc(-c4ccc5ccccc5c4)cc23)cc1OC` [Example 144] were, in that order, 100 to 500 nM and above 10000 nM.
The like results for `COc1ccc([C@@H](C)NC(=O)/C=C/c2c[nH]c3ncc(-c4c(C)nn(C)c4C)cc23)cc1OC` [Example 209, (R,E)-N-(1-(3,4-dimethoxyphenyl)ethyl)-3-(5-(1,3,5-trimethyl-1H-pyrazol-4-yl)-1H-pyrrolo[2,3-b]pyridin-3-yl)acrylamide] were, in that order, 50 to 100 nM and above 10000 nM.
For the compound `COc1ccc([C@@H](C)NC(=O)/C(C#N)=C/c2c[nH]c3ncc(C#N)cc23)cc1OC` [Example 86, (R,E)-2-cyano-3-(5-cyano-1H-pyrrolo[2,3-b]pyridin-3-yl)-N-(1-(3,4-dimethoxyphenyl)ethyl)acrylamide], the IC50 at GRK5 is 100 to 500 nM; at GRK2, above 10000 nM.
The like results for `COc1ccc([C@@H](C)NC(=O)/C(C#N)=C/c2c[nH]c3ncc(-c4cnn(CC(C)O)c4)cc23)cc1OC` (some centres unmarked) [Example 157] were, in that order, at most 50 nM and 1000 to 10000 nM.
The like results for `COc1ccc([C@@H](C)NC(=O)/C(C#N)=C/c2c[nH]c3ncc(-c4ccc(C#N)cc4)cc23)cc1OC` [Example 139] were, in that order, 50 to 100 nM and above 10000 nM.
